From patent publication US10420341B2, “Herbicidal phenylpyrimidines” (BASF SE, priority 2015, dated 2019) come the findings set out here.

The subject of assay [1] is APESV. As to the kind of experiment: greenhouse pre-emergence herbicidal test. The assay is classed as in vivo, Apera spica-venti. The following applies: pre-emergence method, scale from 0 to 100. From the text:
(§1) The seeds of the test plants were sown separately for each species. For the pre-emergence treatment, the active ingredients, which had been suspended or emulsified in water, were applied directly after sowing by means of finely distributing nozzles. The containers were irrigated gently to promote germination and growth and subsequently covered with transparent plastic hoods until the plants had rooted. This cover caused uniform germination of the test plants, unless this had been impaired by the active ingredients. Depending on the species, the plants were kept at 10-25° C. or 20-35° C., respectively. The test period extended over 2 to 4 weeks. During this time, the plants were tended, and their response to the individual treatments was evaluated. Evaluation was carried out using a scale from 0 to 100. 100 means no emergence of the plants, or complete destruction of at least the aerial moieties, and 0 means no damage, or normal course of growth. […] The plants used in the greenhouse experiments were of the following species: [table]

Assay [2] concerns ECHCG. In words: greenhouse pre-emergence herbicidal test. The assay is classed as in vivo, Echinocloa crus-galli. Conditions: pre-emergence method, scale from 0 to 100.
From the text: as §1

The subject of assay [3] is ECHCG. As to the kind of experiment: greenhouse post-emergence herbicidal test. It counts as in vivo, Echinocloa crus-galli. Conditions: post-emergence method, scale from 0 to 100. From the text:
(§2) The seeds of the test plants were sown separately for each species. For the post-emergence treatment, the test plants were first grown to a height of 3 to 15 cm, depending on the plant habit, and only then treated with the active ingredients which had been suspended or emulsified in water. For this purpose, the test plants were either sown directly and grown in the same containers, or they were first grown separately as seedlings and transplanted into the test containers a few days prior to treatment. Depending on the species, the plants were kept at 10-25° C. or 20-35° C., respectively. The test period extended over 2 to 4 weeks. During this time, the plants were tended, and their response to the individual treatments was evaluated. Evaluation was carried out using a scale from 0 to 100. 100 means no emergence of the plants, or complete destruction of at least the aerial moieties, and 0 means no damage, or normal course of growth. […] The plants used in the greenhouse experiments were of the following species: [table]

Assay [4] has as its system ALOMY. As to the kind of experiment: greenhouse post-emergence herbicidal test. It counts as in vivo, Alopercurus myosuroides. Conditions: post-emergence method, application rate 1000 g/ha, scale from 0 to 100.
From the text: as §2

In the case of `CCc1ncc(-c2cc(C)ccc2Cl)c(C(=O)O)n1` [example 7], the “herbicidal activity against APESV” value in assay [1] (application rate 1000 g/ha) is recorded as “very good (a very good herbicidal activity is given at values of at least 85)”. Besides, in assay [2] (application rate 1000 g/ha), the “herbicidal activity against ECHCG” value was “very good (a very good herbicidal activity is given at values of at least 85)”.

Take `CCc1ncc(-c2cc(F)ccc2C)c(C(=O)O)n1` [example 10]: the “herbicidal activity against APESV” value in assay [1] (application rate 500 g/ha) is reported as “very good (a very good herbicidal activity is given at values of at least 85)”. For the same compound, the “herbicidal activity against ECHCG” value in assay [2] (application rate 500 g/ha) is listed as “very good (a very good herbicidal activity is given at values of at least 85)”.

In the case of `CCc1ncc(-c2ccccc2Cl)c(C(=O)OC)n1` [example 19], the “herbicidal activity against APESV” value in assay [1] (application rate 1000 g/ha) is recorded as “very good (a very good herbicidal activity is given at values of at least 85)”. For the same compound, the “herbicidal activity against ECHCG” value in assay [2] (application rate 1000 g/ha) is “very good (a very good herbicidal activity is given at values of at least 85)”.

In the case of `CCc1ncc(-c2cc(C)ccc2Cl)c(C(=O)OC)n1` [example 20], the “herbicidal activity against APESV” value in assay [1] (application rate 1000 g/ha) is on record as “very good (a very good herbicidal activity is given at values of at least 85)”. The “herbicidal activity against ECHCG” value was “very good (a very good herbicidal activity is given at values of at least 85)” in assay [2] (application rate 1000 g/ha) and “good (A good herbicidal activity is given at values of at least 70)” in assay [3] (application rate 1000 g/ha).

`CCc1ncc(-c2cc(Cl)ccc2C)c(C(=O)OC)n1` [example 22]: the “herbicidal activity against APESV” value in assay [1] (application rate 1000 g/ha) is given as “good (A good herbicidal activity is given at values of at least 70)”. The “herbicidal activity against ECHCG” value in assay [2] (application rate 1000 g/ha) was “good (A good herbicidal activity is given at values of at least 70)”.

Turning to `CCc1ncc(-c2cc(C)ccc2C)c(C(=O)OC)n1` [example 23], the “herbicidal activity against APESV” value in assay [1] (application rate 1000 g/ha) is listed as “very good (a very good herbicidal activity is given at values of at least 85)”. In assay [2] (application rate 1000 g/ha), the “herbicidal activity against ECHCG” value is “very good (a very good herbicidal activity is given at values of at least 85)”.

As to `COC(=O)c1nc(C(C)C)ncc1-c1cc(C)ccc1C` [example 38], the “herbicidal activity against APESV” value in assay [1] (application rate 1000 g/ha) is on record as “good (A good herbicidal activity is given at values of at least 70)”. The “herbicidal activity against ECHCG” value in assay [2] (application rate 1000 g/ha) is “very good (a very good herbicidal activity is given at values of at least 85)”.

For the compound `COc1ncc(-c2ccc(C)cc2C)c(C(=O)O)n1` [example 57], in assay [1] (application rate 1000 g/ha), the “herbicidal activity against APESV” value is on record as “very good (a very good herbicidal activity is given at values of at least 85)”. Also, the “herbicidal activity against ECHCG” value in assay [2] (application rate 1000 g/ha) is listed as “very good (a very good herbicidal activity is given at values of at least 85)”.

As to `COC(=O)c1nc(OC)ncc1-c1cc(F)ccc1C` [example 62], the “herbicidal activity against APESV” value in assay [1] (application rate 1000 g/ha) is given as “very good (a very good herbicidal activity is given at values of at least 85)”. In addition, the “herbicidal activity against ECHCG” value in assay [2] (application rate 1000 g/ha) is listed as “good (A good herbicidal activity is given at values of at least 70)”.

For `COc1ccc(F)c(-c2cnc(SC)nc2C(=O)O)c1` [example 83], in assay [3] (application rate 2000 g/ha), the “herbicidal activity against ECHCG” value was “good (A good herbicidal activity is given at values of at least 70)”.

With `COc1ccc(-c2cnc(SC)nc2C(=O)O)c(C)c1` [example 100], in assay [3] (application rate 2000 g/ha), the “herbicidal activity against ECHCG” value is given as “good (A good herbicidal activity is given at values of at least 70)”.

`O=C(O)c1nc(C2CC2)ncc1-c1cc(Br)ccc1F` [example 135]: in assay [1] (application rate 1000 g/ha), the “herbicidal activity against APESV” value is “very good (a very good herbicidal activity is given at values of at least 85)”. Also, in assay [4], the “herbicidal activity against ALOMY” value is listed as “herbicidal activity”.

Consider `COc1ccc(Br)c(-c2cnc(C3CC3)nc2C(=O)O)c1` [example 153], for which, in assay [1] (application rate 1000 g/ha), the “herbicidal activity against APESV” value was “very good (a very good herbicidal activity is given at values of at least 85)”. The “herbicidal activity against ECHCG” value in assay [3] (application rate 1000 g/ha) is “very good (a very good herbicidal activity is given at values of at least 85)”.

`O=C(O)c1nc(C2CC2)ncc1-c1ccccc1[N+](=O)[O-]` [example 160]: the “herbicidal activity against APESV” value in assay [1] (application rate 1000 g/ha) is reported as “very good (a very good herbicidal activity is given at values of at least 85)”. The “herbicidal activity against ECHCG” value in assay [2] (application rate 1000 g/ha) and in assay [3] (application rate 1000 g/ha) was “very good (a very good herbicidal activity is given at values of at least 85)” throughout.

Consider `CC(C)c1ccccc1-c1cnc(C2CC2)nc1C(=O)O` [example 175], for which the “herbicidal activity against APESV” value in assay [1] (application rate 1000 g/ha) is given as “very good (a very good herbicidal activity is given at values of at least 85)”. Besides, the “herbicidal activity against ECHCG” value in assay [2] (application rate 1000 g/ha) is “very good (a very good herbicidal activity is given at values of at least 85)”.

Regarding `COc1ccccc1-c1cnc(C2CC2)nc1C(=O)O` [example 177], the “herbicidal activity against APESV” value in assay [1] (application rate 1000 g/ha) was “very good (a very good herbicidal activity is given at values of at least 85)”. Further, the “herbicidal activity against ECHCG” value in assay [2] (application rate 1000 g/ha) is given as “very good (a very good herbicidal activity is given at values of at least 85)”; in assay [3] (application rate 1000 g/ha), “good (A good herbicidal activity is given at values of at least 70)”.

Consider `COc1ccc(OC)c(-c2cnc(C3CC3)nc2C(=O)O)c1` [example 179], for which, in assay [1] (application rate 2000 g/ha), the “herbicidal activity against APESV” value is listed as “very good (a very good herbicidal activity is given at values of at least 85)”. For the same compound, the “herbicidal activity against ECHCG” value in assay [3] (application rate 2000 g/ha) was “very good (a very good herbicidal activity is given at values of at least 85)”.

With `COCOc1ccccc1-c1cnc(C2CC2)nc1C(=O)O` [example 180], the “herbicidal activity against APESV” value in assay [1] (application rate 1000 g/ha) is on record as “very good (a very good herbicidal activity is given at values of at least 85)”. Moreover, the “herbicidal activity against ECHCG” value in assay [2] (application rate 1000 g/ha) and in assay [3] (application rate 1000 g/ha) was “very good (a very good herbicidal activity is given at values of at least 85)” in each case.

For `C=Cc1ccccc1-c1cnc(C2CC2)nc1C(=O)O` [example 183], the “herbicidal activity against APESV” value in assay [1] (application rate 500 g/ha) is recorded as “very good (a very good herbicidal activity is given at values of at least 85)”. Further, the “herbicidal activity against ECHCG” value in assay [2] (application rate 500 g/ha) is “very good (a very good herbicidal activity is given at values of at least 85)”.

Turning to `O=C(O)c1nc(C2CC2)ncc1-c1ccccc1C1CC1` [example 187], the “herbicidal activity against APESV” value in assay [1] (application rate 1000 g/ha) is given as “very good (a very good herbicidal activity is given at values of at least 85)”. The “herbicidal activity against ECHCG” value in assay [2] (application rate 1000 g/ha) and in assay [3] (application rate 1000 g/ha) was “very good (a very good herbicidal activity is given at values of at least 85)” throughout.

As to `COC(=O)c1nc(C2CC2)ncc1-c1ccc(OC)cc1Cl` [example 294], in assay [3] (application rate 1000 g/ha), the “herbicidal activity against ECHCG” value was “good (A good herbicidal activity is given at values of at least 70)”.

`COc1ccc(-c2cnc(C3CC3)nc2C(=O)O)c(Cl)c1` [example 296]: the “herbicidal activity against APESV” value in assay [1] (application rate 1000 g/ha) is “very good (a very good herbicidal activity is given at values of at least 85)”.

In the case of `COc1ccc(-c2cnc(C3CC3)nc2C(=O)O)c(F)c1` [example 297], the “herbicidal activity against APESV” value in assay [1] (application rate 1000 g/ha) is listed as “very good (a very good herbicidal activity is given at values of at least 85)”.

With `COc1cc(F)ccc1-c1cnc(C2CC2)nc1C(=O)O` [example 301], the “herbicidal activity against APESV” value in assay [1] (application rate 1000 g/ha) is “good (A good herbicidal activity is given at values of at least 70)”. The “herbicidal activity against ECHCG” value in assay [2] (application rate 1000 g/ha) is on record as “very good (a very good herbicidal activity is given at values of at least 85)”.
